From patent US4879421A, “Method for preparing optically active binaphthol and spiroibiindanol” (General Electric Company, priority 1988, dated 1989)

molecular target: T1, cholesterol esterase (Bos taurus, UniProt P30122); experiment: Cholesterol esterase catalyzed hydrolysis of esters, relative rate by pH stat; type: biochemical; conditions: commercial cholesterol esterase, 0.1 N NaOH to hold pH 7.0, emulsion of ester (1.0 mmol) in ethyl ether (10 mL) and 10 mM phosphate buffer pH 7.0 with 30 mg sodium taurocholate
T1 construct: assayed with taurocholate in ether/phosphate emulsion
T1 sequence (P30122 19-597): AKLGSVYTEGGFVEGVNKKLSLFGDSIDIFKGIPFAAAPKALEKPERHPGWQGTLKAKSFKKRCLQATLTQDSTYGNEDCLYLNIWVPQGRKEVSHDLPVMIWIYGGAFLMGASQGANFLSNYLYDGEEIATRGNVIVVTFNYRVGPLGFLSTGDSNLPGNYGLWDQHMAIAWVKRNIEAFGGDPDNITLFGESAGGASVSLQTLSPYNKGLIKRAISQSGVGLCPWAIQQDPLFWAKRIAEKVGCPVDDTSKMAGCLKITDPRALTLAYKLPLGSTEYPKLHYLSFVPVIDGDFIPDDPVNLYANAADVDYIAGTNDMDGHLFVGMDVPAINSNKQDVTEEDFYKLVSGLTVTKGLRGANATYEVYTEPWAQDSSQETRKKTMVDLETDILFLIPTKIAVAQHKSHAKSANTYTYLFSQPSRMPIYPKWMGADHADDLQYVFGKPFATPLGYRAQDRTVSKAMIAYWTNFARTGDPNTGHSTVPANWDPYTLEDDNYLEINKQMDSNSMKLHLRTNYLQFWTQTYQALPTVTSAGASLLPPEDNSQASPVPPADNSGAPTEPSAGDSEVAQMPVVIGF
Method: In similar manner as Example 2 commercial samples of cholesterol esterase are shown to catalyze the enantiospecific hydrolysis of diesters of 1,1'-bi-2-naphthol listed in the following Table.
^(a) The relative rate of hydrolysis is measured using a pH stat whic
measures the amount of base (0.1 N NaOH) required to maintain the pH at
7.0 for an emulsion of ester (1.0 mmol) dissolved in ethyl ether (10
milliliter) and aqueous buffer (10 milliliters of 10 mM phosphate, pH 7.0
containing 30 milligrams sodium taurocholate).

| SMILES | Relative Rate (relative rate of hydrolysis) |
| --- | --- |
| CCC(=O)Oc1ccc2ccccc2c1-c1c(OC(=O)CC)ccc2ccccc12 | 1.1 |
| CCCC(=O)Oc1ccc2ccccc2c1-c1c(OC(=O)CCC)ccc2ccccc12 [Butyrate] | 0.5 |
| CC(=O)Oc1ccc2ccccc2c1-c1c(OC(C)=O)ccc2ccccc12 [acetate] | 1.1 |
| CCCCCC(=O)Oc1ccc2ccccc2c1-c1c(OC(=O)CCCCC)ccc2ccccc12 [hexanoate] | 0.5 |
| CCCCCCCC(=O)Oc1ccc2ccccc2c1-c1c(OC(=O)CCCCCCC)ccc2ccccc12 [octanoate] | 0.4 |
| CC(=O)O[C@H]1CC[C@@]2(C)C(=CC[C@H]3[C@@H]4CC[C@H]([C@H](C)CCCC(C)C)[C@@]4(C)CC[C@@H]32)C1 [reference compound] | 1.0 |
